PMC9961652 (International Journal of Molecular Sciences, 2023)
“Also recorded” adds a separate entry of the source.

Legend:
[1] = tested on: myosin light chain (MLC); test: Phosphorylation of myosin light chain (p-MLC), Western blot in collagen-stimulated platelets; assay type: cell-based, human; details: different concentrations of R-G04 or S-G04; collagen 1 µg/mL
Method: (A,B) Washed human platelets were incubated with collagen (1 µg/mL) for 4 min, and the levels of RhoA-GTP formation were quantified with a GST-Rhotekin effector pull-down assay. The platelets were pre-incubated with 20 µM UC-177618, UC-177619, UC-177628, UC-177629, […], or […] for 2 min before being stimulated with collagen. The addition of ice-cold lysis buffer terminated the reaction. […] Relative amounts of the GTP-bound form of RhoA were quantified with densitometry measurements of total RhoA (T-RhoA) and normalized to untreated platelets. […] The samples were processed for Western blotting and probed for MLC and p-MLC, and phosphorylation was quantified by measuring the densitometry of total MLC (T-MLC). The differences between DMSO- and Rhosin-related compounds were analyzed with t-test, and the results are shown as means ± SDs of three independent experiments. […]
A volume of 250 µL of washed human platelets (2.5 × 10^8/mL) was pre-warmed to 37 °C along with the compounds or DMSO (0.1%) for 2 min before being stimulated with collagen (1 µg/mL) for 4 min. The reactions were terminated by adding 4x Laemmli buffer, and phosphorylated MLC protein was detected with Western blotting as previously reported. Phosphorylation was quantified by measuring the densitometry.

[2] = tested on: washed human platelets; test: Thromboxane B2 ELISA assay; assay type: cell-based; details: different concentrations; thrombin stimulation; Indomethacin 20 µM as comparator
Method: (§1) (A–D) Washed human platelets were pre-incubated with 10 µM S-G04 or 20 µM R-G04 for 2 min before being stimulated with Arachidonic Acid (AA), U46619, ADP, or Thrombin. The % platelet aggregation was measured 5 min after agonist stimulation. (E) Washed human platelets were pre-incubated with 10 µM S-G04 or 20 µM R-G04 for 2 min and with Chrono-lume® for 30 s at 37 °C before being stimulated with 0.1 U/mL Thrombin. […] TxB2 formation was determined using a TxB2 ELISA kit. The differences among DMSO, R-G04, and S-G04 were analyzed using t-test, and the results are shown as means ± SDs of three independent experiments. (* p < 0.05, ** p < 0.01, *** p < 0.001, and **** p < 0.0001).
The level of TxB2 was measured with an enzyme immunoassay kit (No. 501020; Cayman Chemical, Ann Arbor, MI, USA) as previously described. […] The reactions were terminated by adding 250 µL of HEPES Tyrode’s buffer (pH 7.4) containing 2 mM EDTA. The platelets were centrifuged for 2 min, and the level of TxB2 in the supernatant was measured with the ELISA kit according to the manufacturer’s instructions.

[3] = tested on: washed human platelets; test: Platelet aggregation induced by AA, U46619, ADP or thrombin; assay type: cell-based; details: 10 µM S-G04 or 20 µM R-G04, 2 min pre-incubation
Source text: TxA2 is a metabolite derived from AA via the COX pathway, a potent vasoconstrictor, and a platelet agonist that results in irreversible platelet aggregation. […] The data in Figure 7 show the potential of the RhoA inhibitors to inhibit platelet aggregation mediated by diverse agonists, i.e., TxA2, ADP, U46619, AA, and thrombin, and ATP secretion, highlighting the potential to inhibit multiple-agonist-mediated platelet activation pathways at micromolar concentrations.
as §1
The in vitro antiplatelet activity of the compounds was assayed on washed human platelets using light transmission aggregometry. Platelet aggregation was performed using a 4-channel Lumi-aggregometer (Chronolog, PA, USA) at 37 °C and stirring speed of 900 rpm. A volume of 250 µL of washed human platelets (2.5 × 10^8/mL) was pre-warmed to 37 °C along with the compounds or DMSO (0.1%) for 2 min before the addition of agonists such as collagen, AA, U46619 (a stable synthetic analog of thromboxane A2), ADP, and thrombin. For ATP secretion, platelets were pre-incubated with a luciferin/luciferase kit (Chrono-lume®) for 30 s at 37 °C before the addition of the agonist. The reactions were allowed to proceed for at least 4 min, and the results of platelet aggregation and ATP secretion were determined using Aggrolink software. Platelet aggregation was expressed as the maximum change in the light transmission, where the 100% value corresponded to treatment with the agonist alone. Compounds were evaluated in triplicate at nine compound concentrations ranging from 50 µM to 1 µM. The half-maximal inhibitory concentration (IC50) value was calculated as the concentration of the inhibitor causing 50% inhibition of aggregation.

Compound | phosphorylation of the MLC [1] | generation of TxA2, measured as thromboxane B2 (TxB2) [2] | AA-induced platelet aggregation [3] | ADP-induced platelet aggregation [3] | U46619-induced platelet aggregation [3] | thrombin-induced platelet aggregation [3]
N[C@H](Cc1c[nH]c2ccccc12)C(=O)N/N=C/c1ccc2nccnc2c1 [R-G04] | inhibited the downstream phosphorylation of the MLC | dose-dependent inhibition | failed to have the same inhibitory effect | significantly inhibited ADP-induced platelet aggregation | failed to have the same inhibitory effect | failed to have the same inhibitory effect
N[C@@H](Cc1c[nH]c2ccccc12)C(=O)N/N=C/c1ccc2nccnc2c1 [S-G04] | inhibited the downstream phosphorylation of the MLC | dose-dependent inhibition; also recorded: comparable to that of Indomethacin | suppressed the platelet activation | significantly inhibited ADP-induced platelet aggregation | suppressed the platelet activation | suppressed the platelet activation
